In PubChem BioAssay (NCI):
“And” between values parts separate entries of the source, which are not always exact repeats. Equal values may be shown once.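 Step 1: Grow cells in 96-well plates. Step 2: Expose to compound for 48 hours at 5 concentrations. Step 3: Interpolate endpoints linearly; if unreached, use highest concentration. At the GI50, growth is halved. TGI marks complete inhibition of growth.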

Tests used:
Test in all cases: NCI anticancer screen, dose series, 48 h
MDA-N = test system: MDA-N
BT-549 breast = test system: BT-549 breast
DMS 273 small cell lung = test system: DMS 273 small cell lung
DMS 114 small cell lung = test system: DMS 114 small cell lung
RXF-631 renal = test system: RXF-631 renal
HOP-18 NSCLC = test system: HOP-18 NSCLC
DLD-1 colon = test system: DLD-1 colon
MDA-MB-231 breast = test system: MDA-MB-231 breast
M19-MEL melanoma = test system: M19-MEL melanoma

## O=[N+]([O-])c1nccn1CC1OC(n2ccnc2[N+](=O)[O-])C(O)C(O)C1O (configuration not stated)
MDA-N
  TGI: > 100 µM
BT-549 breast
  TGI: > 100 µM

## Cc1cccc(C)c1NC(=O)CCCC(=O)C1CCC/C1=N\NC(=O)C(=O)NN (configuration not stated)
DMS 273 small cell lung
  TGI: > 100 µM
DMS 114 small cell lung
  TGI: > 100 µM
RXF-631 renal
  TGI: > 100 µM
HOP-18 NSCLC
  TGI: > 100 µM
DLD-1 colon
  TGI: > 100 µM

## CCc1c[nH]c2ncnc(N3CC[C@@](N)(CNC(=O)c4ccc(F)cc4F)C3)c12
MDA-MB-231 breast
  GI50: 35.6 µM
  TGI: > 100 µM
BT-549 breast
  GI50: 17 µM
  TGI: 55.3 µM

## COc1ccc(-c2ccc(/C=N/n3c(COc4ccc(Cl)cc4)n[nH]c3=S)o2)c([N+](=O)[O-])c1
MDA-MB-231 breast
  GI50: 14.2 µM
  TGI: 48.5 µM
BT-549 breast
  GI50: 13.6 µM
  TGI: 50 µM

## N#Cc1ccccc1NC(=O)c1ccccc1
DMS 273 small cell lung
  TGI: > 100 µM
M19-MEL melanoma
  TGI: > 100 µM
HOP-18 NSCLC
  TGI: > 100 µM
DLD-1 colon
  TGI: > 100 µM

## C=C(C)CCC(C)N1CCC(N2CCC(C(=O)NCCc3ccccc3)CC2)CC1 (configuration not stated)
MDA-MB-231 breast
  GI50: 29.9 µM
  TGI: > 100 µM
BT-549 breast
  GI50: 12.1 µM
  TGI: > 100 µM

## N/N=C(\Cc1ccccc1)NN=C(N)N
M19-MEL melanoma
  TGI: > 100 µM
RXF-631 renal
  TGI: > 100 µM
HOP-18 NSCLC
  TGI: > 100 µM
DLD-1 colon
  TGI: > 100 µM

## Oc1cc(Cl)ccc1Oc1ccc(Cl)cc1Cl
MDA-MB-231 breast
  GI50: 2.16 µM
  TGI: 4.95 µM
BT-549 breast
  GI50: 2.62 µM
  TGI: 5.95 µM

## CC(=O)c1cccc(NCn2nnc3ccccc32)c1
DMS 273 small cell lung
  TGI: > 100 µM
DMS 114 small cell lung
  TGI: > 100 µM
M19-MEL melanoma
  TGI: > 100 µM
HOP-18 NSCLC
  TGI: > 100 µM
DLD-1 colon
  TGI: > 100 µM

## Cc1ccc2c(c1)ncn2-c1ncnc2c1CC(C)c1ccccc1N2C (configuration not stated)
MDA-MB-231 breast
  GI50: 0.192 µM
  TGI: 16.6 µM
BT-549 breast
  GI50: 0.314 µM
  TGI: 8.25 µM

## C=C[C@]1(C)C=C2C(=O)[C@@]3(O)OC[C@@]4(CCCC(C)(C)C43O)C2(O)C(O)C1 (some centres not stated)
MDA-MB-231 breast
  GI50: 13.3 µM
  TGI: 27.3 µM
BT-549 breast
  GI50: 3.47 µM
  TGI: 13.2 µM

## CCc1c2c(nc3cccc(N)c13)-c1cc3c(c(=O)n1C2)COC(=O)[C@]3(O)CC
MDA-MB-231 breast
  GI50: 0.053 µM
  TGI: > 100 µM
MDA-N
  GI50: 0.0915 µM and 0.704 µM
  TGI: > 100 µM
BT-549 breast
  GI50: 0.00656 µM
  TGI: 0.0218 µM

## CS(=O)(=O)Nc1cc(-c2ccc3ncnc(Nc4ccc5c(cnn5Cc5ccc(F)cc5)c4)c3c2)cnc1Cl
BT-549 breast
  GI50: 0.957 µM
  TGI: 6.47 µM

## O=C(O)CCC1CCc2cccc3occ1c23 (configuration not stated)
DMS 273 small cell lung
  TGI: > 100 µM
DMS 114 small cell lung
  TGI: > 100 µM
M19-MEL melanoma
  TGI: > 100 µM
RXF-631 renal
  TGI: > 100 µM
DLD-1 colon
  TGI: > 100 µM

## O=c1[nH]cnc2c(C3OC(CO)C(O)C3O)scc12 (configuration not stated)
MDA-MB-231 breast
  GI50: 37.5 µM
  TGI: > 100 µM
BT-549 breast
  GI50: > 100 µM
  TGI: > 100 µM

## COc1cc(/C=C(/c2ccccc2)[N+](=O)[O-])c(OC)c2c1OCO2
MDA-MB-231 breast
  GI50: 1.7 µM
  TGI: 3.33 µM
BT-549 breast
  GI50: 1.66 µM
  TGI: 3.23 µM

## O=[N+]([O-])c1ccc(CS(=O)Cc2ccccc2)cc1 (configuration not stated)
MDA-MB-231 breast
  TGI: > 100 µM
MDA-N
  TGI: > 100 µM
BT-549 breast
  TGI: > 100 µM

## [O-]c1on[n+]2c1c(Nc1ccc(Cl)cc1)nc1ccccc12
DMS 273 small cell lung
  TGI: > 100 µM
DMS 114 small cell lung
  TGI: > 100 µM
M19-MEL melanoma
  TGI: > 100 µM
DLD-1 colon
  TGI: > 100 µM
